Experimental data taken from ChEMBL document CHEMBL1201862, “PubChem BioAssay data set” (2004).
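In this assay, cells in 96-well plates receive the compound at five concentrations for 48 hours. Endpoints are linearly interpolated between the surrounding concentrations. Here, GI50 denotes the concentration required for 50% inhibition of growth.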 Calls of active or inactive are those of the source. Cut-off read from the data, not from the text of the source: active = GI50 up to about 1.1 µM and inactive = higher.

How the values were obtained:
Experiment in all cases: growth of human tumour cells (NCI), 48 h
786-0 = test system: 786-0
A498 = test system: A498
A549 = test system: A549
ACHN = test system: ACHN
CAKI-1 = test system: CAKI-1
CCRF-CEM = test system: CCRF-CEM
COLO 205 = test system: COLO 205
DMS-114 = test system: DMS-114
EKVX = test system: EKVX
HCC 2998 = test system: HCC 2998
HCT-116 = test system: HCT-116
HL-60 = test system: HL-60
HOP-18 = test system: HOP-18
HOP-62 = test system: HOP-62
HOP-92 = test system: HOP-92
HT-29 = test system: HT-29
IGROV-1 = test system: IGROV-1
K562 = test system: K562
KM-20L2 = test system: KM-20L2
KM12 = test system: KM12
LOX IMVI = test system: LOX IMVI
LXFL 529 = test system: LXFL 529
M14 = test system: M14
M19-MEL = test system: M19-MEL
MOLT-4 = test system: MOLT-4
Malme-3M = test system: Malme-3M
NCI-H226 = test system: NCI-H226
NCI-H23 = test system: NCI-H23
NCI-H460 = test system: NCI-H460
NCI-H522 = test system: NCI-H522
OVCAR-3 = test system: OVCAR-3
OVCAR-4 = test system: OVCAR-4
OVCAR-8 = test system: OVCAR-8
RXF 393 = test system: RXF 393
RXF 631 = test system: RXF 631
SF-268 = test system: SF-268
SF-295 = test system: SF-295
SF-539 = test system: SF-539
SK-MEL-28 = test system: SK-MEL-28
SK-MEL-5 = test system: SK-MEL-5
SK-OV-3 = test system: SK-OV-3
SN12C = test system: SN12C
SNB-19 = test system: SNB-19
SNB-75 = test system: SNB-75
SNB-78 = test system: SNB-78
SR = test system: SR
SW-620 = test system: SW-620
TK-10 = test system: TK-10
U-251 = test system: U-251
UACC-257 = test system: UACC-257
UACC-62 = test system: UACC-62
UO-31 = test system: UO-31
XF498 = test system: XF498
DLD-1 = test system: DLD-1
DMS-273 = test system: DMS-273
HCT-15 = test system: HCT-15
OVCAR-5 = test system: OVCAR-5
RPMI-8226 = test system: RPMI-8226
SK-MEL-2 = test system: SK-MEL-2

CC(Oc1ccc2cc(C(=O)c3ccccc3)c(=O)oc2c1)C(=O)O (configuration not stated)
GI50 (786-0): > 100 µM (inactive) | GI50 (A498): > 100 µM (inactive) | GI50 (A549): > 100 µM (inactive) | GI50 (ACHN): > 100 µM (inactive) | GI50 (CAKI-1): > 100 µM (inactive) | GI50 (CCRF-CEM): > 100 µM (inactive) | GI50 (COLO 205): > 100 µM (inactive) | GI50 (DMS-114): > 100 µM (inactive) | GI50 (EKVX): > 100 µM (inactive) | GI50 (HCC 2998): > 100 µM (inactive) | GI50 (HCT-116): > 100 µM (inactive) | GI50 (HL-60): > 100 µM (inactive) | GI50 (HOP-18): > 100 µM (inactive) | GI50 (HOP-62): > 100 µM (inactive) | GI50 (HOP-92): > 100 µM (inactive) | GI50 (HT-29): > 100 µM (inactive) | GI50 (IGROV-1): > 100 µM (inactive) | GI50 (K562): > 100 µM (inactive) | GI50 (KM-20L2): > 100 µM (inactive) | GI50 (KM12): > 100 µM (inactive) | GI50 (LOX IMVI): > 100 µM (inactive) | GI50 (LXFL 529): > 100 µM (inactive) | GI50 (M14): > 100 µM (inactive) | GI50 (M19-MEL): > 100 µM (inactive) | GI50 (MOLT-4): > 100 µM (inactive) | GI50 (Malme-3M): > 100 µM (inactive) | GI50 (NCI-H226): > 100 µM (inactive) | GI50 (NCI-H23): > 100 µM (inactive) | GI50 (NCI-H460): > 100 µM (inactive) | GI50 (NCI-H522): > 100 µM (inactive) | GI50 (OVCAR-3): > 100 µM (inactive) | GI50 (OVCAR-4): > 100 µM (inactive) | GI50 (OVCAR-8): > 100 µM (inactive) | GI50 (RXF 393): > 100 µM (inactive) | GI50 (RXF 631): > 100 µM (inactive) | GI50 (SF-268): > 100 µM (inactive) | GI50 (SF-295): > 100 µM (inactive) | GI50 (SF-539): > 100 µM (inactive) | GI50 (SK-MEL-28): > 100 µM (inactive) | GI50 (SK-MEL-5): > 100 µM (inactive) | GI50 (SK-OV-3): > 100 µM (inactive) | GI50 (SN12C): > 100 µM (inactive) | GI50 (SNB-19): > 100 µM (inactive) | GI50 (SNB-75): > 100 µM (inactive) | GI50 (SNB-78): > 100 µM (inactive) | GI50 (SR): > 100 µM (inactive) | GI50 (SW-620): > 100 µM (inactive) | GI50 (TK-10): > 100 µM (inactive) | GI50 (U-251): > 100 µM (inactive) | GI50 (UACC-257): > 100 µM (inactive) | GI50 (UACC-62): > 100 µM (inactive) | GI50 (UO-31): > 100 µM (inactive) | GI50 (XF498): > 100 µM (inactive)

Cc1ccc(N2C(=O)/C(=C/c3ccc(N(CCC#N)CCC#N)cc3C)N=C2c2cc([N+](=O)[O-])ccc2Cl)cc1
GI50 (786-0): > 100 µM (inactive) | GI50 (A498): > 100 µM (inactive) | GI50 (A549): > 100 µM (inactive) | GI50 (ACHN): > 100 µM (inactive) | GI50 (CAKI-1): 56 µM (inactive) | GI50 (CCRF-CEM): > 100 µM (inactive) | GI50 (COLO 205): > 100 µM (inactive) | GI50 (DLD-1): > 100 µM (inactive) | GI50 (DMS-114): 75.2 µM (inactive) | GI50 (DMS-273): > 100 µM (inactive) | GI50 (HCC 2998): > 100 µM (inactive) | GI50 (HCT-116): > 100 µM (inactive) | GI50 (HCT-15): > 100 µM | GI50 (HL-60): > 100 µM (inactive) | GI50 (HOP-18): > 100 µM (inactive) | GI50 (HOP-62): > 100 µM (inactive) | GI50 (HOP-92): > 100 µM (inactive) | GI50 (HT-29): > 100 µM (inactive) | GI50 (IGROV-1): > 100 µM (inactive) | GI50 (K562): > 100 µM (inactive) | GI50 (KM12): > 100 µM (inactive) | GI50 (LXFL 529): > 100 µM (inactive) | GI50 (M14): > 100 µM (inactive) | GI50 (M19-MEL): > 100 µM (inactive) | GI50 (MOLT-4): 91.2 µM (inactive) | GI50 (Malme-3M): > 100 µM (inactive) | GI50 (NCI-H226): > 100 µM (inactive) | GI50 (NCI-H23): > 100 µM (inactive) | GI50 (NCI-H460): > 100 µM (inactive) | GI50 (NCI-H522): > 100 µM (inactive) | GI50 (OVCAR-3): > 100 µM (inactive) | GI50 (OVCAR-4): > 100 µM (inactive) | GI50 (OVCAR-5): > 100 µM (inactive) | GI50 (OVCAR-8): > 100 µM (inactive) | GI50 (RPMI-8226): > 100 µM (inactive) | GI50 (RXF 631): > 100 µM (inactive) | GI50 (SF-268): > 100 µM (inactive) | GI50 (SF-295): > 100 µM (inactive) | GI50 (SF-539): > 100 µM (inactive) | GI50 (SK-MEL-28): > 100 µM (inactive) | GI50 (SK-MEL-2): > 100 µM (inactive) | GI50 (SK-MEL-5): > 100 µM (inactive) | GI50 (SK-OV-3): > 100 µM (inactive) | GI50 (SN12C): > 100 µM (inactive) | GI50 (SNB-19): > 100 µM (inactive) | GI50 (SNB-75): > 100 µM (inactive) | GI50 (SNB-78): > 100 µM (inactive) | GI50 (SR): 58.2 µM (inactive) | GI50 (SW-620): > 100 µM (inactive) | GI50 (TK-10): > 100 µM (inactive) | GI50 (U-251): > 100 µM (inactive) | GI50 (UACC-257): > 100 µM (inactive) | GI50 (UACC-62): > 100 µM (inactive) | GI50 (UO-31): > 100 µM (inactive)
